*1 amine or outer side, *2 acyl side, *3 side chain or, on linkers, in order; H or OH if unused. Where a SMILES comes first, the peptide text is derived from it. [ ]: non-standard residue; d: D form. The star is where a group is joined. X2 = O=C(O)CCC(NC(=O)NC(CCCCN*)C(=O)O)C(=O)O; 2Nal = N[CH](Cc1ccc2ccccc2c1)C(=O)O; X1 = O=C(C1CCC(N[*:1])CC1)[*:2]; Mercaptoacetyl = O=C(CS)*
Experiments:
[1] = system: patients with metastatic castration-resistant prostate cancer; assay: Clinical imaging and therapy under compassionate care; format: in vivo, humans
Description: After giving written informed consent, 3 patients with metastatic castration-resistant prostate cancer received PSMA-radioligand therapy (RLT) and the related companion diagnostic under compassionate-care regulations. Prospective clinical trial registration is not required for compassionate care that is performed under an individual medical indication.
The timeline of imaging time points is illustrated in Figure 2.

[2] = system: mice; assay: Toxicologic investigation (OECD guideline)
Description: The evaluation was conducted using well-known standard methods ([16],[17]).

| SMILES | clearance route ([1]; dual-photopeak imaging) | mortality ([2]; mice) | dose without toxicologic effect ([2]; mice, third-party preclinical research organization) | organ weights or macroscopic observations ([2]; terminal or recovery euthanasia) | liver-to-kidney uptake ratio compared with PSMA-617 ([1]; initially, intraindividual comparison) |
| --- | --- | --- | --- | --- | --- |
| O=C([O-])CN1CCN(CC(=O)[O-])CCN(CC(=O)NCC2CCC(C(=O)N[C@@H](Cc3ccc4ccccc4c3)C(=O)NCCCC[C@H](NC(=O)N[C@@H](CCC(=O)O)C(=O)O)C(=O)O)CC2)CCN(CC(=O)[O-])CC1.[177Lu+3] (some centres unmarked) [^177Lu-PSMA-617, reference compound] | combined renal and hepatointestinal clearance route | – | – | – | – |
| O=C(O)CCC(NC(=O)NC(CCCCNC(=O)C(Cc1ccc2ccccc2c1)NC(=O)C1CCC(NC(=O)C(CO)NC(=O)C(CO)NC(=O)C(CO)NC(=O)CS)CC1)C(=O)O)C(=O)O (centres unmarked) [PSMA-GCK01] (Mercaptoacetyl-SSS[X1][2Nal]-X2; configuration not given here) | – | No test article–related mortality | up to 2 mg/kg | No differences | higher |
